Assays:
Assay type in all cases: binding
AMPKa1 or AMPKa2 = test: Probe-based (AX9989) kinase profiling in Jurkat lysate: AMPKa1 or AMPKa2; conditions: for AMPKa1 or AMPKa2 Inhibition % at indicated screening concentration: screening concentration 10 μM
Method: (§1) In this example, potency of the compounds as ERK5 inhibitors was assessed, and the compounds were screened for activity against several kinases in Jurkat cells.
(§2) Jurkat cell pellets were resuspended in four volumes of lysis buffer (50 mM HEPES pH 7.5, 150 mM NaCl, 0.1% Triton-X-100, 1% v/v phosphatase, inhibitor cocktail II [EMD/Calbiochem, #524625]), sonicated using a tip, sonicator, and Dounce homogenized. Lysate was cleared by centrifugation, at 16,000 g for 15 min., was gel filtered (BioRad 10DG) and MnCl2 was then added to a final concentration of 20 mM before treatment with the test compound and probe labeling. […] All compound treatments were performed at room temperature.
(§3) Acyl phosphate ATP probe (AX9989) labeling reactions were performed at room temperature with a final probe concentration of 5 μM after a 15 min pre-incubation of lysate with a test compound. All reactions were performed in duplicate, using 445 μl/sample at 5 mg/ml. Probe-labeled lysates were denatured and reduced (6 M urea, 10 mM DTT, 65° C., 15 min), alkylated (40 mM iodoacetamide, 37° C., 30 min, and gel filtered (Sephadex G25) into 10 mM ammonium bicarbonate, 2 M urea, 5 mM methionine. The desalted protein mixture was digested with trypsin (0.015 mg/ml) for 1 hr at 37° C., and desthiobiotinylated peptides were captured using a […] high-capacity streptavidin resin (Thermo Scientific). Captured peptides were then washed extensively using 150 μl/wash with three different wash buffers: (A) 3 times with 1% triton, 0.5% tergitol, 1 mM EDTA in PBS; (B) 18 times with PBS; and (C) 8 times with HPLC grade water. Peptides were eluted from the streptavidin beads using two 35-μL washes of a 50% CH3CN/water mixture containing 0.1% TFA at room temperature.
(§4) Kinase active site peptides were identified and quantified using LC/MS. Percent inhibition was calculated as the normalized decrease in the ESI-MS fragment intensities of probe-labeled peptides in samples incubated with the test compound compared to those without.

AurB or AurC = test: Probe-based (AX9989) kinase profiling in Jurkat lysate: AurB or AurC; conditions: for AurB or AurC Inhibition % at indicated screening concentration: screening concentration 10 μM
Method: as §1, §2, §3, §4

TAO2 = target: T1, TAO2 (Homo sapiens, UniProt Q9UL54); test: Probe-based (AX9989) kinase profiling in Jurkat lysate: TAO2; conditions: for inhibition at 10 µM: screening concentration 10 μM, read-out: TAO2 Inhibition % at indicated screening concentration
T1 construct: screened for activity against several kinases in Jurkat cells; endogenous in cells; host or cells: Jurkat cell lysate
T1 sequence (Q9UL54 1-1235): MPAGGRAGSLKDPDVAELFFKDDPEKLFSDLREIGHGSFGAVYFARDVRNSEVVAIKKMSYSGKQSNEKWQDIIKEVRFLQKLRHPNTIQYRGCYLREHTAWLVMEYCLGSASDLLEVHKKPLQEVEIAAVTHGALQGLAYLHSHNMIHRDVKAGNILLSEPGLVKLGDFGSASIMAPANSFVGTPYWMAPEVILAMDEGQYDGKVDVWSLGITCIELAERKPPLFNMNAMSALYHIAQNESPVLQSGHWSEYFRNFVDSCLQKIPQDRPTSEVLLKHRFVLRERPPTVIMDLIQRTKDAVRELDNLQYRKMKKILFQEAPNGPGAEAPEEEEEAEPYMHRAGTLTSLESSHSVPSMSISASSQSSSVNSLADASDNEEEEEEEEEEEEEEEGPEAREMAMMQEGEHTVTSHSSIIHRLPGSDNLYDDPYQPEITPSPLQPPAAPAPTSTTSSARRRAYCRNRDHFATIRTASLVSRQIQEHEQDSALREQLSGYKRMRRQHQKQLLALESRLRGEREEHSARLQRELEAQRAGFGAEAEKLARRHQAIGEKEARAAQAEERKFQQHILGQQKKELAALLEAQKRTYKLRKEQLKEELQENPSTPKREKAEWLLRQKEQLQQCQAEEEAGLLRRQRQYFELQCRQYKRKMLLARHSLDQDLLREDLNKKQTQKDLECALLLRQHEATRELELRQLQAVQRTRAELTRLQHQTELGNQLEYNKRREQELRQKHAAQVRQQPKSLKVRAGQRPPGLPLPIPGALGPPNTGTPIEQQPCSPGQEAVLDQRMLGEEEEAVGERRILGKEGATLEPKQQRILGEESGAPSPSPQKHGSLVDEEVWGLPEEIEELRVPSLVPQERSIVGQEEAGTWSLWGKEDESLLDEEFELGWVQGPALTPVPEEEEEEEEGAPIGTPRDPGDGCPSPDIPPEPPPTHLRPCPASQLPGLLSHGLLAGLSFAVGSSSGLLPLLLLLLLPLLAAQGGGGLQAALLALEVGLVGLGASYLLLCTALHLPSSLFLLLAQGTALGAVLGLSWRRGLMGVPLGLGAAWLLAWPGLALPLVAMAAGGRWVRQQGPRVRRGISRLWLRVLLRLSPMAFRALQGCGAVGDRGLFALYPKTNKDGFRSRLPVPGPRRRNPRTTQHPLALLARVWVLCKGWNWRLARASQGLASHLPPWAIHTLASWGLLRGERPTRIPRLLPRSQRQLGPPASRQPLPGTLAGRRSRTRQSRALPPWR
Method: as §1, §2, §3, §4

ERK5 = target: T2, ERK5 (Homo sapiens, UniProt Q13164); test: Probe-based (AX9989 acyl phosphate ATP probe) kinase profiling in Jurkat lysate: ERK5; conditions: for IC50: Jurkat lysate; for inhibition at 10 µM: screening concentration 10 μM, read-out: ERK5 Inhibition % at indicated screening concentration
T2 construct: screened for activity against several kinases in Jurkat cells; endogenous in cells; host or cells: Jurkat cell lysate
T2 sequence (Q13164 whole entry): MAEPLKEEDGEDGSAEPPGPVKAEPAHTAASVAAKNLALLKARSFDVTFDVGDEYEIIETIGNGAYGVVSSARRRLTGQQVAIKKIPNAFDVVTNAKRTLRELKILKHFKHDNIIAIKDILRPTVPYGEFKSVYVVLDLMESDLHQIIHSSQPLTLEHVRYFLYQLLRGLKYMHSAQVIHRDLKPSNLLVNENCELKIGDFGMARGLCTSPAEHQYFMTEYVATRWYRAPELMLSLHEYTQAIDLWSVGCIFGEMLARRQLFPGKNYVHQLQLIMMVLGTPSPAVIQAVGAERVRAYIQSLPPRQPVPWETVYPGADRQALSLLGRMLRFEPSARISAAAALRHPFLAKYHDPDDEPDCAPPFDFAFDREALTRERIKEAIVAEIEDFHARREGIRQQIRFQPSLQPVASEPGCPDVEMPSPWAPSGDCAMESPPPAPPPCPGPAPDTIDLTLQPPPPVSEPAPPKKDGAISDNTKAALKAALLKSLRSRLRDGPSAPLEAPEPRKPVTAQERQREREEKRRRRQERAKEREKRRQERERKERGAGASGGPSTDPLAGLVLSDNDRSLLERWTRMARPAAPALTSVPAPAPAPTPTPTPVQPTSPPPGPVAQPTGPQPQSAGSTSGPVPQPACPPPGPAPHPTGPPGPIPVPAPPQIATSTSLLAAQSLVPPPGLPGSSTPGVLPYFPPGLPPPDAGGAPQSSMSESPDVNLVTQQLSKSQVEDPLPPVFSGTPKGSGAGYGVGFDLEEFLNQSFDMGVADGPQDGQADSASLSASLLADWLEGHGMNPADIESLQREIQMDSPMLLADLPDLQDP
Method: as §1, §2, §3, §4
ERK5 IC50 values were calculated from the percent inhibition and the screening concentration.

JAK1 = target: T3, JAK1 (Homo sapiens, UniProt P23458); test: Probe-based (AX9989) kinase profiling in Jurkat lysate: JAK1; conditions: for inhibition at 10 µM: screening concentration 10 μM, read-out: JAK1 Inhibition % at indicated screening concentration
T3 construct: screened for activity against several kinases in Jurkat cells; endogenous in cells; host or cells: Jurkat cell lysate
T3 sequence (P23458 whole entry): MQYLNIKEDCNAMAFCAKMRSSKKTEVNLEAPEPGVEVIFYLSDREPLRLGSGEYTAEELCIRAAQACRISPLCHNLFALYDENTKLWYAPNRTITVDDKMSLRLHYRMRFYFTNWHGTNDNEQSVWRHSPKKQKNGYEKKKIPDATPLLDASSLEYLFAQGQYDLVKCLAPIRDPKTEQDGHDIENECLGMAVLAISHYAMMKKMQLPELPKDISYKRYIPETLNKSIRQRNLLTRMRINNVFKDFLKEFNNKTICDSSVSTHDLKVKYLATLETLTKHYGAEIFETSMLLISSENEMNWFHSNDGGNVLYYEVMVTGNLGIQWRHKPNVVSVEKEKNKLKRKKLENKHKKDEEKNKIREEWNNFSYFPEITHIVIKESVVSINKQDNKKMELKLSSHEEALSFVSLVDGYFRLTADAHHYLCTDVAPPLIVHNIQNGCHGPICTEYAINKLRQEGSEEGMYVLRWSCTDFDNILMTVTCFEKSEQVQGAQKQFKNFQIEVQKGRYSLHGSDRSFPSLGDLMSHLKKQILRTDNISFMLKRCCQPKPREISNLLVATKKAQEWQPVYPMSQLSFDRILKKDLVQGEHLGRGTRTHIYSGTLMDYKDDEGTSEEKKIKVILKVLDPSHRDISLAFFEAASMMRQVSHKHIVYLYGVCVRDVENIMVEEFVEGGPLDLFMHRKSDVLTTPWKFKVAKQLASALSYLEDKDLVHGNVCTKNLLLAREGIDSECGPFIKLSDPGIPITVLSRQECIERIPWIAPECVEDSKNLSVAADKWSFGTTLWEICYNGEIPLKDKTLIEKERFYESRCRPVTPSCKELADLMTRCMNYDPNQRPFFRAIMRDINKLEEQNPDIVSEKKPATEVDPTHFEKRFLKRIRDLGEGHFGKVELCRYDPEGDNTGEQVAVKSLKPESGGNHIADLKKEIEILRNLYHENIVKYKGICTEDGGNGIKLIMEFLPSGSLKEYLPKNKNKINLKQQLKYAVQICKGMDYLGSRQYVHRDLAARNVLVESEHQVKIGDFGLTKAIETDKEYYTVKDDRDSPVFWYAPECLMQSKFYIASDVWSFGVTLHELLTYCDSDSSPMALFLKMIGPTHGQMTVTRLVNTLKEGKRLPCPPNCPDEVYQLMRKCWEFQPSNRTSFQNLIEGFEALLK
Method: as §1, §2, §3, §4

AurA = target: T4, AurA (Homo sapiens, UniProt O14965); test: Probe-based (AX9989) kinase profiling in Jurkat lysate: AurA; conditions: for inhibition at 10 µM: screening concentration 10 μM, read-out: AurA Inhibition % at indicated screening concentration
T4 construct: screened for activity against several kinases in Jurkat cells; endogenous in cells; host or cells: Jurkat cell lysate
T4 sequence (O14965 1-403): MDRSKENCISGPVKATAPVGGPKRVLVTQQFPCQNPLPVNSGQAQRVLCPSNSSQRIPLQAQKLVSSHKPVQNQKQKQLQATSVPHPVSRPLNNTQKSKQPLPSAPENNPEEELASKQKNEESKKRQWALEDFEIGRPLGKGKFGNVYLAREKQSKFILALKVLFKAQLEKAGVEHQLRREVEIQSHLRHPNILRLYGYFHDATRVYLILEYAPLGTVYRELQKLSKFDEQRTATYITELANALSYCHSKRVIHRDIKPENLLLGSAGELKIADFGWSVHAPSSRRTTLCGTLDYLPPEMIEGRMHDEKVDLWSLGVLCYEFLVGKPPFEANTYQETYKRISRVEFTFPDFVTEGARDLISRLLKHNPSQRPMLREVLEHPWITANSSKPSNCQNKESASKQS
Method: as §1, §2, §3, §4

ACK = target: T5, ACK (Homo sapiens, UniProt Q07912); test: Probe-based (AX9989) kinase profiling in Jurkat lysate: ACK; conditions: for inhibition at 10 µM: screening concentration 10 μM, read-out: ACK Inhibition % at indicated screening concentration
T5 construct: screened for activity against several kinases in Jurkat cells; endogenous in cells; host or cells: Jurkat cell lysate
T5 sequence (Q07912 whole entry): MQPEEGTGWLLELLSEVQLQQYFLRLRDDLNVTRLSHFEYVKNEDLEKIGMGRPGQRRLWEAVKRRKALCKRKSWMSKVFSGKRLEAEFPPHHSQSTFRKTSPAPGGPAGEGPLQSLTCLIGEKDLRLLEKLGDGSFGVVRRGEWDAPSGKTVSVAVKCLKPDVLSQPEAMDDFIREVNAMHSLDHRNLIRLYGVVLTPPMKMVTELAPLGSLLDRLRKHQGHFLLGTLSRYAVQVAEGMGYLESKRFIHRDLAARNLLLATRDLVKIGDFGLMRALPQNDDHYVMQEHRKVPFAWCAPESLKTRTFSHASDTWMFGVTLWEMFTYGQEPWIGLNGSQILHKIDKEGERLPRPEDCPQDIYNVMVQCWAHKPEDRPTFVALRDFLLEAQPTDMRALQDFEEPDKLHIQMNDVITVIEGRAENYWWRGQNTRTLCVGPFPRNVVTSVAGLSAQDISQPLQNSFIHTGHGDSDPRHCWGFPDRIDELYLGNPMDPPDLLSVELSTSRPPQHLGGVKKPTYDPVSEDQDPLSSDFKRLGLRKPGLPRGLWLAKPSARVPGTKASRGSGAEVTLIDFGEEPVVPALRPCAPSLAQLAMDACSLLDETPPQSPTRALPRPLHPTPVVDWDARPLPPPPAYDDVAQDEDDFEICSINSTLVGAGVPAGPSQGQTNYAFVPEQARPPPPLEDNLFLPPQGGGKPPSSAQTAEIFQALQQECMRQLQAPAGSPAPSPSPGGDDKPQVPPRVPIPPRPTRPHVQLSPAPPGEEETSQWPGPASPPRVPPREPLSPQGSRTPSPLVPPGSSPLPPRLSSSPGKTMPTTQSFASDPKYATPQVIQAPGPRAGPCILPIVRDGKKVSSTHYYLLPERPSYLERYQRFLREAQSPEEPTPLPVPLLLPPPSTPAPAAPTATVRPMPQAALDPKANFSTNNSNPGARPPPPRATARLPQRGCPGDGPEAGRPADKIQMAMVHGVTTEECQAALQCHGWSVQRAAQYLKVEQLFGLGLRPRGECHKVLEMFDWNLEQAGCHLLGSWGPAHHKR
Method: as §1, §2, §3, §4

ABL or ARG = test: Probe-based (AX9989) kinase profiling in Jurkat lysate: ABL or ARG; conditions: for ABL or ARG Inhibition % at indicated screening concentration: screening concentration 10 μM
Method: as §1, §2, §3, §4

[1] = calculated from percent inhibition of AX9989 labeling and the screening concentration
[2] = calculated from percent inhibition and screening concentration, AX9989 probe

Compound | IC50 (ERK5; [1]) | AMPKa1 or AMPKa2 Inhibition % at indicated screening concentration (AMPKa1 or AMPKa2) | AurB or AurC Inhibition % at indicated screening concentration (AurB or AurC) | inhibition at 10 µM (TAO2) | IC50 (ERK5; [2]) | inhibition at 10 µM (ERK5) | inhibition at 10 µM (JAK1) | inhibition at 10 µM (AurA) | inhibition at 10 µM (ACK) | ABL or ARG Inhibition % at indicated screening concentration (ABL or ARG) | other results
CCOc1cc(CO)ccc1Nc1cc2c(cn1)N(C)C(=O)c1ccccc1N2C [Compound 112] | 101 to 500 nM | – | – | – | – | – | – | – | – | – | Kinase inhibition % at indicated screening concentration: AMPKa1 or AMPKa2 (AMPKa1 or AMPKa2; screening concentration 0.1 μM): E (E is ≦35%); Kinase inhibition % at indicated screening concentration: AurB or AurC (AurB or AurC; screening concentration 0.1 μM): E (E is ≦35%); inhibition at 0.1 µM (TAO2; screening concentration 0.1 μM, read-out: Kinase inhibition % at indicated screening concentration: TAO2): ≤ 35%; inhibition at 0.1 µM (ERK5; screening concentration 0.1 μM, read-out: Kinase inhibition % at indicated screening concentration: ERK5): 35 to 50%; inhibition at 0.1 µM (JAK1; screening concentration 0.1 μM, read-out: Kinase inhibition % at indicated screening concentration: JAK1): ≤ 35%; inhibition at 0.1 µM (AurA; screening concentration 0.1 μM, read-out: Kinase inhibition % at indicated screening concentration: AurA): ≤ 35%; inhibition at 0.1 µM (ACK; screening concentration 0.1 μM, read-out: Kinase inhibition % at indicated screening concentration: ACK): ≤ 35%; Kinase inhibition % at indicated screening concentration: ABL or ARG (ABL or ARG; screening concentration 0.1 μM): E (E is ≦35%)
CCOc1cc(C(=O)O)ccc1Nc1cc2c(cn1)N(C)S(=O)(=O)c1ccccc1N2C [Compound T1] | – | E (E is ≦35%) | E (E is ≦35%) | ≤ 35% | > 500 nM | ≤ 35% | ≤ 35% | ≤ 35% | ≤ 35% | E (E is ≦35%) | –
CCOc1cc(C(=O)N2CC[C@@H](N(C)C)C2)ccc1Nc1cc2c(cn1)N(C)S(=O)(=O)c1ccccc1N2C [Compound T3] | – | E (E is ≦35%) | E (E is ≦35%) | ≤ 35% | > 500 nM | ≤ 35% | ≤ 35% | ≤ 35% | ≤ 35% | E (E is ≦35%) | –

The next lines start with results.

IC50 (ERK5; [1]) | AMPKa1 or AMPKa2 Inhibition % at indicated screening concentration (AMPKa1 or AMPKa2) | AurB or AurC Inhibition % at indicated screening concentration (AurB or AurC) | inhibition at 10 µM (TAO2) | IC50 (ERK5; [2]) | inhibition at 10 µM (ERK5) | inhibition at 10 µM (JAK1) | inhibition at 10 µM (AurA) | inhibition at 10 µM (ACK) | ABL or ARG Inhibition % at indicated screening concentration (ABL or ARG) | Compound | other results
> 500 nM | – | – | – | – | – | – | – | – | – | CCOc1cc(Cl)ccc1Nc1cc2c(cn1)N(C)C(=O)c1ccccc1N2C [Compound 104] | Kinase inhibition % at indicated screening concentration: AMPKa1 or AMPKa2 (AMPKa1 or AMPKa2; screening concentration 1.0 μM): E (E is ≦35%); Kinase inhibition % at indicated screening concentration: AurB or AurC (AurB or AurC; screening concentration 1.0 μM): E (E is ≦35%); inhibition at 1 µM (TAO2; screening concentration 1.0 μM, read-out: Kinase inhibition % at indicated screening concentration: TAO2): ≤ 35%; inhibition at 1 µM (ERK5; screening concentration 1.0 μM, read-out: Kinase inhibition % at indicated screening concentration: ERK5): 35 to 50%; inhibition at 1 µM (JAK1; screening concentration 1.0 μM, read-out: Kinase inhibition % at indicated screening concentration: JAK1): ≤ 35%; inhibition at 1 µM (AurA; screening concentration 1.0 μM, read-out: Kinase inhibition % at indicated screening concentration: AurA): ≤ 35%; inhibition at 1 µM (ACK; screening concentration 1.0 μM, read-out: Kinase inhibition % at indicated screening concentration: ACK): ≤ 35%; Kinase inhibition % at indicated screening concentration: ABL or ARG (ABL or ARG; screening concentration 1.0 μM): E (E is ≦35%)
– | E (E is ≦35%) | E (E is ≦35%) | ≤ 35% | > 500 nM | 35 to 50% | ≤ 35% | ≤ 35% | ≤ 35% | E (E is ≦35%) | CCOc1cc(C(=O)N2CCC(N3CCCC3)CC2)ccc1Nc1cc2c(cn1)N(C)S(=O)(=O)c1ccccc1N2C [Compound T2] | –
